# pIC50: −log10 of the molar value. Active and inactive are the calls of the source. No cut-off for these calls is given here.
# How the values were obtained:
# [1] = Metabolic stability in human hepatocytes assessed as liver blood flow at 1 uM incubated for 6 hrs by HPLC-MS/MS analysis; assay type: ADME, cell-based, Hepatocyte; conditions: read-out: QH
# [2] = Permeability across apical to basal side in human Caco-2 cells by LC-MS/MS analysis; assay type: ADME, cell-based; conditions: read-out: permeability
# [3] = Permeability across basal to apical side in human Calu-3 cells at 0.1 to 300 uM measured upto 2 hrs by HPLC-MS/MS analysis; assay type: ADME, cell-based; conditions: dose 0.1-300 µM, read-out: permeability
# [4] = biological target: CaV3.1 (Homo sapiens, UniProt O43497); assay: Inhibition of CaV3.1 (unknown origin) at 10 uM relative to control; assay type: toxicity
# [5] = Metabolic stability in rat hepatocytes assessed as liver blood flow at 1 uM incubated for 6 hrs by HPLC-MS/MS analysis; assay type: ADME, cell-based, Hepatocyte; conditions: read-out: QH
# [6] = Metabolic stability in human liver microsomes assessed as liver blood flow at 1 uM by LC-MS/MS analysis; assay type: ADME, Microsome; conditions: read-out: QH
# [7] = Genotoxicity in Salmonella typhimurium TA98 incubated for 48 hrs in presence of rat liver S9 fraction by Ames test; assay type: toxicity, subcellular; conditions: salmonella enterica subsp. enterica serovar typhimurium, s9, 48 h
# [8] = Solubility of compound at pH 5; assay type: physicochemical; conditions: buffer
# [9] = biological target: T1, Cytochrome P450 1A2 (Homo sapiens, UniProt P05177); assay: Inhibition of CYP1A2 in human liver microsomes in presence of NADPH by LC-MS/MS analysis; assay type: ADME, Microsome
# T1 sequence (P05177 whole entry): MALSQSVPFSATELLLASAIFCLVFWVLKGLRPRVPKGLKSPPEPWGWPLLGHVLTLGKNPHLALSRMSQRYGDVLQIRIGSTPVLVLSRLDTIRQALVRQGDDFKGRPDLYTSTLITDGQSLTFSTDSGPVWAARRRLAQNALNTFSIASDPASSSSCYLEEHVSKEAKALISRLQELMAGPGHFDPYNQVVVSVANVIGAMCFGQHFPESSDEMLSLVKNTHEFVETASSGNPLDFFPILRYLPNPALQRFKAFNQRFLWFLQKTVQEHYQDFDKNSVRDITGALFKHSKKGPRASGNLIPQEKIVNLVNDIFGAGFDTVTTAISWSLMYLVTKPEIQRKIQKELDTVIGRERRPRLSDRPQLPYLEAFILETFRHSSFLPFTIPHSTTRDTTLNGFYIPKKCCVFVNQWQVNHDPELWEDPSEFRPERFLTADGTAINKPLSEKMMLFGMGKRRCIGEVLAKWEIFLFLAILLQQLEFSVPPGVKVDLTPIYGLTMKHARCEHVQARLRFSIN
# [10] = biological target: Cytochrome P450 2D6 (Homo sapiens, UniProt P10635); assay: Inhibition of CYP2D6 in human liver microsomes using dextromethorphan as substrate in presence of NADPH by LC-MS/MS analysis; assay type: ADME, Microsome
# [11] = Genotoxicity in Escherichia coli WP2 uvrA (pKM 101) incubated for 48 hrs in presence of rat liver S9 fraction by Ames test; assay type: toxicity, subcellular; conditions: s9, 48 h
# [12] = Metabolic stability in rat liver microsomes assessed as liver blood flow at 1 uM by LC-MS/MS analysis; assay type: ADME, Microsome; conditions: read-out: QH
# [13] = Genotoxicity in Salmonella typhimurium TA1535 incubated for 48 hrs in presence of rat liver S9 fraction by Ames test; assay type: toxicity, subcellular; conditions: salmonella enterica subsp. enterica serovar typhimurium, s9, 48 h
# [14] = Oral bioavailability in Han Wistar rat; assay type: ADME, organism-based; conditions: in vivo
# [15] = Drug uptake in Han Wistar rat lung at 8 ug/kg, IT(Intratracheal) measured after 3 hrs by HPLC-TMS analysis; assay type: ADME, tissue-based; conditions: in vivo, inhaled_or_intranasal, 0.008 mg/kg, dose 8 µg/kg
# [16] = Genotoxicity in Salmonella typhimurium TA1537 incubated for 48 hrs in presence of rat liver S9 fraction by Ames test; assay type: toxicity, subcellular; conditions: salmonella enterica subsp. enterica serovar typhimurium, s9, 48 h
# [17] = Clearance in Han Wistar rat assessed as liver blood flow at 0.5 umol/kg; assay type: ADME, tissue-based; conditions: in vivo, at 0.5 µmol/kg
# [18] = biological target: CFTR (Homo sapiens, UniProt P13569); assay: Inhibition of CFTR (unknown origin) at 10 uM relative to control; assay type: toxicity
# [19] = biological target: Cytochrome P450 3A4 (Homo sapiens, UniProt P08684); assay: Inhibition of CYP3A4 in human liver microsomes using midazolam as substrate in presence of NADPH by LC-MS/MS analysis; assay type: ADME, Microsome
# [20] = Cytotoxicity against rat hepatocytes by LDH assay; assay type: toxicity, cell-based, Hepatocyte
# [21] = biological target: CaV3.2 (Homo sapiens, UniProt O95180); assay: Inhibition of CaV3.2 (unknown origin) at 10 uM relative to control; assay type: toxicity
# [22] = Permeability of compound by PAMPA assay; assay type: ADME; conditions: read-out: permeability
# [23] = Genotoxicity in Salmonella typhimurium TA100 incubated for 48 hrs in presence of rat liver S9 fraction by Ames test; assay type: toxicity, subcellular; conditions: salmonella enterica subsp. enterica serovar typhimurium, s9, 48 h
# [24] = biological target: Cytochrome P450 2C9 (Homo sapiens, UniProt P11712); assay: Inhibition of CYP2C9 in human liver microsomes using diclofenac as substrate in presence of NADPH by LC-MS/MS analysis; assay type: ADME, Microsome
# [25] = Lipophilicity, logD of compound at pH 7.4; assay type: physicochemical; conditions: buffer
# [26] = biological target: Cytochrome P450 2C19 (Homo sapiens, UniProt P33261); assay: Inhibition of CYP2C19 in human liver microsomes using (S)-mephenytoin as substrate in presence of NADPH by LC-MS/MS analysis; assay type: ADME, Microsome
# [27] = biological target: BK channel (Homo sapiens, UniProt Q12791); assay: Inhibition of BK channel (unknown origin) at 10 uM relative to control; assay type: toxicity
# [28] = Cytotoxicity against human 16HBE14o- cells by plasma damage based analysis; assay type: toxicity, cell-based
# [29] = MRT in Han Wistar rat; assay type: ADME; conditions: in vivo
# [30] = Cytotoxicity against human U-937 cells by MTT assay; assay type: toxicity, cell-based
# [31] = Drug uptake in Han Wistar rat lung at 10 ug/kg, IT(Intratracheal) measured after 3 hrs by HPLC-TMS analysis; assay type: ADME, tissue-based; conditions: in vivo, inhaled_or_intranasal, 0.01 mg/kg, dose 10 µg/kg
# [32] = tested on: Lung; assay: Inhibition of lung water resorption in Wistar rat at 3 ug/kg, IT(Intratracheal) incubated for 3 hrs relative to control; assay type: functional
# [33] = tested on: M1 cell; assay: Inhibition of ENaC-mediated water resorption in mouse M1 cells at 3 uM by radiometric dilution assay relative to control; assay type: cell-based
# [34] = biological target: Acetylcholinesterase (Homo sapiens) (UniProt P22303); assay: Inhibition of AChE (unknown origin) at 10 uM relative to control
# [35] = tested on: Rattus norvegicus; assay: Upregulation of serum aldosterone level in Han Wistar rat model of lung fluid absorption at 3 ug/kg, IT(Intratracheal) measured after 3 hrs relative to control; assay type: functional; conditions: dose 3 µg/kg
# [36] = Inhibition of ENaC in mouse M1 cells upto 10 uM by chamber assay; assay type: cell-based; conditions: m1 cell
# [37] = species on record: Rattus norvegicus; assay: Upregulation of serum potassium level in Han Wistar rat; assay type: functional, organism-based
# [38] = tested on: Rattus norvegicus; assay: Effect on Han Wistar rat model of lung fluid absorption at ED70 administered intratracheally measured after 20 hrs; assay type: functional; conditions: route it(Intratracheal)
# [39] = tested on: Lung; assay: Inhibition of lung water resorption in Wistar rat at 0.3 ug/kg, IT(Intratracheal) incubated for 3 hrs relative to control; assay type: functional
# [40] = tested on: Rattus norvegicus; assay: Acute effect on Han Wistar rat model of lung fluid absorption administered intratracheally measured after 3 hrs; assay type: functional; conditions: route it(Intratracheal)
# Chain of Cytochrome P450 3A4 (P08684 whole entry): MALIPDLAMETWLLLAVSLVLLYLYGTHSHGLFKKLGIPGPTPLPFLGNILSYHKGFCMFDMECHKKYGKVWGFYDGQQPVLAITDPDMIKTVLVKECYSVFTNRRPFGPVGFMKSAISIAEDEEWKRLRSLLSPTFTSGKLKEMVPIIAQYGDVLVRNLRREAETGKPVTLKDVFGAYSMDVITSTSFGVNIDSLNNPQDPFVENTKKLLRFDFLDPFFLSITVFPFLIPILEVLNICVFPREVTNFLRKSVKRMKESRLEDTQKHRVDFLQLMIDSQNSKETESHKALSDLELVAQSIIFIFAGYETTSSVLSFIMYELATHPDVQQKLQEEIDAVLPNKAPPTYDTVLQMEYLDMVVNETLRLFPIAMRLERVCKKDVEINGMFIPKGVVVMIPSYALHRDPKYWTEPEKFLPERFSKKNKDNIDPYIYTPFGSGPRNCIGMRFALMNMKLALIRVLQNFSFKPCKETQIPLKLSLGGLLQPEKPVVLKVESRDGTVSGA
# Chain of Cytochrome P450 2D6 (P10635 whole entry): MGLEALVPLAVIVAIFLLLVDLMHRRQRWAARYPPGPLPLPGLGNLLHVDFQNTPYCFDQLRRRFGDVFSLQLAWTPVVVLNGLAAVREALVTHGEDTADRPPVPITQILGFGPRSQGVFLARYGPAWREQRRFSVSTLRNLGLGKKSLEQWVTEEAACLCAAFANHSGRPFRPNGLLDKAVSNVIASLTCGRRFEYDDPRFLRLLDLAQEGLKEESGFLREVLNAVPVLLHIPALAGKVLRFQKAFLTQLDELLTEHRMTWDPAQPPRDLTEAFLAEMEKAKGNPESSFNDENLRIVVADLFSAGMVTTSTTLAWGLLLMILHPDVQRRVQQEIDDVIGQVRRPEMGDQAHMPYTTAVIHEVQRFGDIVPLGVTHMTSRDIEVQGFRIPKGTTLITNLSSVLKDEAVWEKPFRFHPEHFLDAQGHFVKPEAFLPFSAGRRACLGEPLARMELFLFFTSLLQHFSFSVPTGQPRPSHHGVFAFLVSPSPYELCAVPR
# Chain of Cytochrome P450 2C19 (P33261 whole entry): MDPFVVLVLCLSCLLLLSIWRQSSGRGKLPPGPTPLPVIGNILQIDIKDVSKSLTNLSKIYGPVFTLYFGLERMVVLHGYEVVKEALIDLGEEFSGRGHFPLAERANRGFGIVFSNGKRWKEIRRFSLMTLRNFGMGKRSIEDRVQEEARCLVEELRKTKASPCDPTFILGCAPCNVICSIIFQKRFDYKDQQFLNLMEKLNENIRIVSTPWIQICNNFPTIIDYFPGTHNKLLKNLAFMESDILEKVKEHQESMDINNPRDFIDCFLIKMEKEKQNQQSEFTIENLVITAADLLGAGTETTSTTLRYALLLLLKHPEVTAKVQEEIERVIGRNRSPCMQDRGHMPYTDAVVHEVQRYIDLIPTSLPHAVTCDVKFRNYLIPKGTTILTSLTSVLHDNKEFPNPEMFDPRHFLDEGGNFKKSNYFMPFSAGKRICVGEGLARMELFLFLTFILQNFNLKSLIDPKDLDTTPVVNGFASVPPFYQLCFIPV
# Chain of Cytochrome P450 2C9 (P11712 whole entry): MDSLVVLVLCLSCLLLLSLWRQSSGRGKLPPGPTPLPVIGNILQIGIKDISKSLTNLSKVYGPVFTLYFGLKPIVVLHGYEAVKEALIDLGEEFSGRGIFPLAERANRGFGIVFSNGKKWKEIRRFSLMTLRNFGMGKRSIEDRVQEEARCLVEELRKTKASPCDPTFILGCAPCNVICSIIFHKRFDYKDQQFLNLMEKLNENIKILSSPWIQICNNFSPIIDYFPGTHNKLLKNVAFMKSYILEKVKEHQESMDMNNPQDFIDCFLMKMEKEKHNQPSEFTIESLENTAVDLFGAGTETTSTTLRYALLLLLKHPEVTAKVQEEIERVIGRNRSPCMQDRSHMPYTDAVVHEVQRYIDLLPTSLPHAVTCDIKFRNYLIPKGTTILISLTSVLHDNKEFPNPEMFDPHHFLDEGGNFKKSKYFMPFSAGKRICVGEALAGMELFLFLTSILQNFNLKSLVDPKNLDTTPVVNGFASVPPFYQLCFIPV
# Chain of CaV3.2 (O95180 whole entry): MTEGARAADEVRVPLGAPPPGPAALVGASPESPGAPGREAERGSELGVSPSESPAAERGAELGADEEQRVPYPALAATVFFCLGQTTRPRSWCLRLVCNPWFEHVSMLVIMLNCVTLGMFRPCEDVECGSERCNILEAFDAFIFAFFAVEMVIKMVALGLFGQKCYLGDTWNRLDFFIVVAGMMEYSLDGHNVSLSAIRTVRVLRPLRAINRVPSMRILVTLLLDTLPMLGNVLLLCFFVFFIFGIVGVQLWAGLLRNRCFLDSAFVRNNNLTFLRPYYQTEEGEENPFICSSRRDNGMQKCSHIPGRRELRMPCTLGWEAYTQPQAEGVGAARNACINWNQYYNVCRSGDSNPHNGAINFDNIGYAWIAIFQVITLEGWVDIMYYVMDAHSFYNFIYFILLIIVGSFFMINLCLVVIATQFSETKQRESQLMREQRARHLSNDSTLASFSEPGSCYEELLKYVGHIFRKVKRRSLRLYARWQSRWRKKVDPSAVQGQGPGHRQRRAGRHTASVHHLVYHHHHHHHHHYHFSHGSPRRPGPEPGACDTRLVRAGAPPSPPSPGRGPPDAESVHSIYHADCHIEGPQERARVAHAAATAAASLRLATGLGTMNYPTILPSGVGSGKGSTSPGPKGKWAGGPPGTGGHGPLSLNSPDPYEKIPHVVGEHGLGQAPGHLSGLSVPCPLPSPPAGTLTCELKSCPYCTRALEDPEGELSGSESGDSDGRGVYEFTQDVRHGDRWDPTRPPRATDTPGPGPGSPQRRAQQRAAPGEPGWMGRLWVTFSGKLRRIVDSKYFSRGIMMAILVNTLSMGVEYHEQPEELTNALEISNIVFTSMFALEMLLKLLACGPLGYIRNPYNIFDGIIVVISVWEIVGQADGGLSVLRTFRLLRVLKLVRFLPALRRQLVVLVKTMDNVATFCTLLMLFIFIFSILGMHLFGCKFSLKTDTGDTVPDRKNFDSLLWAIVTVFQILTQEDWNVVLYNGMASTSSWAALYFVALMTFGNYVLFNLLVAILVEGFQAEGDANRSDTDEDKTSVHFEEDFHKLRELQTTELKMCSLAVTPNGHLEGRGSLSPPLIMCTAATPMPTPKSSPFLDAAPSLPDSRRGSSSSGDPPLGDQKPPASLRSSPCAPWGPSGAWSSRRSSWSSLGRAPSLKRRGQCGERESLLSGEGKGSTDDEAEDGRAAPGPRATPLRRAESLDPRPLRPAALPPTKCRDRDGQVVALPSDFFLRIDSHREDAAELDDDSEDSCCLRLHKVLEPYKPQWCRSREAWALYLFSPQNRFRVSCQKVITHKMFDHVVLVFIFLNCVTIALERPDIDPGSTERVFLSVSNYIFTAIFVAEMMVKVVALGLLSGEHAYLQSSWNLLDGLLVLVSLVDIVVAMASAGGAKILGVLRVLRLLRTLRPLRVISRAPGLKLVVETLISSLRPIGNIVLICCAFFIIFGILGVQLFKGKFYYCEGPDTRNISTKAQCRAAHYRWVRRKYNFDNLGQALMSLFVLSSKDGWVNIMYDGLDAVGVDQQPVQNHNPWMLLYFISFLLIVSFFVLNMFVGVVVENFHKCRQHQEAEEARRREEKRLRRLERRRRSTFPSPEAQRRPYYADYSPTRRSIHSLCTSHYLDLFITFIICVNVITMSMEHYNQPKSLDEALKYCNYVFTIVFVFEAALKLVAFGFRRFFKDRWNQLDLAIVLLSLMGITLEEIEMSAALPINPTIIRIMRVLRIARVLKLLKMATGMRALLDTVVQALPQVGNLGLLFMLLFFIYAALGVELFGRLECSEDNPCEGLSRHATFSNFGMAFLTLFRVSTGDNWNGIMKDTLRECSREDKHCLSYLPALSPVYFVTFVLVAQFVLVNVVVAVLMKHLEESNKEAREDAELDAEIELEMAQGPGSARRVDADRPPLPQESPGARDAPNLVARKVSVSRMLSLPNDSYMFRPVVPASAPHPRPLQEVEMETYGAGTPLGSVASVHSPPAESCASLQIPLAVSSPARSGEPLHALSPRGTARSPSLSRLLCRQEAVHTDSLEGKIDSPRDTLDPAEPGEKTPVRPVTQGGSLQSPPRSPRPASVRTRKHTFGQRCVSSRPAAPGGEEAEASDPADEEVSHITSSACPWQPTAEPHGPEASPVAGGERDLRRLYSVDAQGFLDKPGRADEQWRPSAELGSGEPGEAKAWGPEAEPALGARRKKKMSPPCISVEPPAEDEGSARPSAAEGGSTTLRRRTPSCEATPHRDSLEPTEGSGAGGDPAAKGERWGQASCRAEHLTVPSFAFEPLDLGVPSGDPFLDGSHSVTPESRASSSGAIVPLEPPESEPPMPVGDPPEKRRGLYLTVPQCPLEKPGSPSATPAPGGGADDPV
# Chain of Acetylcholinesterase (Homo sapiens) (P22303 whole entry): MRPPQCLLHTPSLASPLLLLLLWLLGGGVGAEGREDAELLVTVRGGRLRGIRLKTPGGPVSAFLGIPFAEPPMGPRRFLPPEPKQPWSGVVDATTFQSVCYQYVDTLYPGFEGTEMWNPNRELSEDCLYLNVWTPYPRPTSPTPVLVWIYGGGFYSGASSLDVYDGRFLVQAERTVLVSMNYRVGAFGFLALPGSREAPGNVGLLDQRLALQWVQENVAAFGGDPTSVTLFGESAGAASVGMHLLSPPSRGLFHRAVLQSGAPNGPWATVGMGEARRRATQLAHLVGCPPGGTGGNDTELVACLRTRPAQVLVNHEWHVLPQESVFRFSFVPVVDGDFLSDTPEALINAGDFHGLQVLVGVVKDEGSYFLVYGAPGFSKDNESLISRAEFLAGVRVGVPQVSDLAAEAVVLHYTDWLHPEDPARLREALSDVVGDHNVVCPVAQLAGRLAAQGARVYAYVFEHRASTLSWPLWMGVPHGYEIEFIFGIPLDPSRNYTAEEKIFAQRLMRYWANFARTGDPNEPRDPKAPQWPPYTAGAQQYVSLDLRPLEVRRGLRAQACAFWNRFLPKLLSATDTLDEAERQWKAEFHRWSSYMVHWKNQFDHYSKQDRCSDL
Structure (SMILES),"hepatic extraction ratio at 6 h, 1 µM [1]",Papp A→B [2],"Papp B→A at 2 h, up to 300 µM [3]","hepatic extraction ratio at 6 h, 1 µM [5]",hepatic extraction ratio at 1 µM [6],Activity [7],solubility [8],pIC50 [9],pIC50 [10],Activity [11],hepatic extraction ratio at 1 µM [12],Activity [13],Activity [16],QH [17],pIC50 [19],pIC50 [20],Papp [22],Activity [23],pIC50 [24],logD [25],further results
CCn1c(CNC(=O)c2nc(Cl)cnc2N)[n+](CC)c2ccc(OCC(=O)NCCOCP(C)(C)=O)cc21,0.17,6 nm/s,3.7 nm/s,0.28,< 0.23,Non-Toxic,> 5%,< 4.30,< 4.30,Non-Toxic,< 0.23,Non-Toxic,Non-Toxic,79%,< 4.30,< 3.10,< 0.5 nm/s,Non-Toxic,< 4.30,0.1,inhibition at 10 µM [4]: < 50%; bioavailability [14]: < 5%; Drug uptake [15]: 26%; inhibition at 10 µM [18]: < 50%; inhibition at 10 µM [21]: < 50%; pIC50 [26]: < 4.30; inhibition at 10 µM [27]: < 50%; pIC50 [28]: < 3.10; MRT [29]: 18 min; pIC50 [30]: < 3.10
CCn1c(CNC(=O)c2nc(Cl)cnc2N)[n+](CC)c2ccc(C(=O)N(C)CCN(C)C)cc21,0.2,< 2 nm/s,< 2.1 nm/s,0.2,< 0.23,Non-Toxic,> 2%,< 4.30,< 4.30,Non-Toxic,< 0.23,Non-Toxic,Non-Toxic,84%,< 4.30,< 3.10,< 0.2 nm/s,Non-Toxic,< 4.30,0.2,Drug uptake [31]: 55%; inhibition in vivo at 0.003 mg/kg [32]: 33%; inhibition [33]: 81%; inhibition [34]: 44%; Activity [35]: <25%; pIC50 [36]: 8.21; Activity [37]: inactive; Efficacy [38]: 39%; inhibition in vivo at 0.0003 mg/kg [39]: 27%; ED50 [40]: 0.1 µg/kg; ED70 [40]: 0.13 µg/kg; pIC50 [26]: < 4.30; pIC50 [28]: < 3.10; MRT [29]: 18 min; pIC50 [30]: < 3.10
